Measured values from ChEMBL document CHEMBL6182855, “Design and synthesis of phenanthridinone and phenanthridine derivatives and their radiosensitizing activity” (2025).
One block for each molecule: values may come before it. Activity calls are given as the source filed them. The calls are words filed in the database; no cut-off is given here.

Assays:
[1] = target: Tyrosyl-DNA phosphodiesterase 1 (Homo sapiens) (UniProt Q9NUW8); experiment: Inhibition of TDP1 (unknown origin) using (5'-FAM-AGGATCTAAAAGACTT-BHQ-3') as substrate at 100 uM by fluorescence assay
HCT-116 [2] = experiment: Cytotoxicity against human HCT-116 cells assessed as cell growth inhibition incubated for 72 hrs by CCK-8 assay; assay type: functional
HCT-116 [3] = experiment: Cytotoxicity against human HCT-116 cells assessed as cell killing at 0.5 uM incubated for 72 hrs by CCK-8 assay relative to control; assay type: functional
HCT-116 [4] = experiment: Induction of cell cycle arrest in human HCT-116 cells assessed as accumulation of cells at G0/G1 phase at 5 uM incubated for 24 hrs in presence of IR-4 Gy by PI staining based flow cytometric analysis (reference value: 56.89%); assay type: functional
HCT-116 [5] = experiment: Induction of apoptosis in human HCT-116 cells assessed as early apoptotic cells at 5 uM incubated for 24 hrs in presence of IR-4 Gy by AnnexinV-FITC/PI staining based flow cytometry (reference value: 4.88%); assay type: functional
HCT-116 [6] = experiment: Induction of ROS generation in human HCT-116 cells at 5 to 10 uM by DCFH-DA staining based ELISA; assay type: functional, cell-based; settings: dose 5-10 µM
HCT-116 [7] = experiment: Induction of cell cycle arrest in human HCT-116 cells assessed as accumulation of cells at G0/G1 phase at 5 uM incubated for 24 hrs by PI staining based flow cytometric analysis (reference value: 58.75%); assay type: functional
HCT-116 [8] = experiment: Induction of cell cycle arrest in human HCT-116 cells assessed as accumulation of cells at G2/M phase at 5 uM incubated for 24 hrs by PI staining based flow cytometric analysis (reference value: 23.42 %); assay type: functional
HCT-116 [9] = experiment: Induction of DNA damage in human HCT-116 cells assessed as increase in gamma-H2AX fluorescence intensity at 10 uM incubated for 6 hrs by DAPI staining based immunofluorescence microscopic analysis; assay type: functional, cell-based
HCT-116 [10] = experiment: Radiosensitization activity in human HCT-116 cells assessed as cell killing at 0.25 uM incubated for 24 hrs in presence of IR-5 Gy by crystal violet staining based colony formation assay relative to control; assay type: functional
HCT-116 [11] = experiment: Induction of cell cycle arrest in human HCT-116 cells assessed as accumulation of cells at S phase at 5 uM incubated for 24 hrs in presence of IR-4 Gy by PI staining based flow cytometric analysis (reference value: 13.71%); assay type: functional
HCT-116 [12] = experiment: Radiosensitization activity in human HCT-116 cells assessed as combination index at 0.1 to 0.5 uM incubated for 24 hrs in presence of IR-2 Gy by crystal violet staining based colony formation assay; assay type: functional; settings: dose 0.1-0.5 µM
HCT-116 [13] = experiment: Cytotoxicity against human HCT-116 cells assessed as cell survival at 0.5 uM incubated for 72 hrs by CCK-8 assay relative to control; assay type: functional; settings: read-out: Activity
HCT-116 [14] = experiment: Induction of DNA damage in human HCT-116 cells assessed as increase in gamma-H2AX fluorescence intensity at 10 uM incubated for 6 hrs in presence of IR 4 Gy by DAPI staining based immunofluorescence microscopic analysis; assay type: functional, cell-based
HCT-116 [15] = experiment: Radiosensitization activity in human HCT-116 cells assessed as combination index at 0.25 uM incubated for 24 hrs in presence of IR-5 Gy by crystal violet staining based colony formation assay; assay type: functional
HCT-116 [16] = experiment: Induction of apoptosis in human HCT-116 cells assessed as late apoptotic cells at 5 uM incubated for 24 hrs by AnnexinV-FITC/PI staining based flow cytometry (reference value: 0.41%); assay type: functional
HCT-116 [17] = experiment: Induction of cell cycle arrest in human HCT-116 cells assessed as accumulation of cells at G2/M phase at 5 uM incubated for 24 hrs in presence of IR-4 Gy by PI staining based flow cytometric analysis (reference value: 29.00 %); assay type: functional
HCT-116 [18] = experiment: Induction of apoptosis in human HCT-116 cells assessed as viable cells at 5 uM incubated for 24 hrs in presence of IR-4 Gy by AnnexinV-FITC/PI staining based flow cytometry (reference value: 94.08%); assay type: functional; settings: read-out: Activity
HCT-116 [19] = experiment: Induction of apoptosis in human HCT-116 cells assessed as viable cells at 5 uM incubated for 24 hrs by AnnexinV-FITC/PI staining based flow cytometry (reference value: 98.05%); assay type: functional; settings: read-out: Activity
HCT-116 [20] = experiment: Induction of cell cycle arrest in human HCT-116 cells assessed as accumulation of cells at S phase at 5 uM incubated for 24 hrs by PI staining based flow cytometric analysis (reference value: 17.14%); assay type: functional
HCT-116 [21] = experiment: Radiosensitization activity in human HCT-116 cells incubated for 24 hrs in presence of IR-2 Gy by crystal violet staining based colony formation assay; assay type: functional, cell-based; settings: dose 0.1-0.5 µM
HCT-116 [22] = experiment: Radiosensitizing activity in human HCT-116 cells assessed as reduction in cell viability at 0.5 uM co-treated with IR-2 Gy incubated for 72 hrs by CCK-8 assay (reference value: 37%); assay type: functional
HCT-116 [23] = experiment: Induction of ROS generation in human HCT-116 cells assessed as fold increase in ROS level at 10 uM in presence of IR 4 Gy by DCFH-DA staining based ELISA; assay type: functional
HCT-116 [24] = experiment: Inhibition of colony formation in human HCT-116 cells at 0.25 uM incubated for 24 hrs by crystal violet staining based colony formation assay relative to control; assay type: functional
HCT-116 [25] = experiment: Induction of ROS generation in human HCT-116 cells assessed as fold increase in ROS level at 5 uM in presence of IR 4 Gy by DCFH-DA staining based ELISA; assay type: functional
HCT-116 [26] = experiment: Induction of ROS generation in human HCT-116 cells at 5 to 10 uM in presence of IR 4 Gy by DCFH-DA staining based ELISA; assay type: functional, cell-based; settings: dose 5-10 µM
HCT-116 [27] = experiment: Induction of apoptosis in human HCT-116 cells assessed as early apoptotic cells at 5 uM incubated for 24 hrs by AnnexinV-FITC/PI staining based flow cytometry (reference value: 1.41%); assay type: functional
HCT-116 [28] = experiment: Induction of apoptosis in human HCT-116 cells assessed as late apoptotic cells at 5 uM incubated for 24 hrs in presence of IR-4 Gy by AnnexinV-FITC/PI staining based flow cytometry (reference value: 0.93%); assay type: functional
HCT-116 [29] = experiment: Cytotoxicity against human HCT-116 cells at 0.5 uM incubated for 72 hrs by CCK-8 assay; assay type: functional, cell-based
HCT-116 [30] = experiment: Radiosensitizing activity in human HCT-116 cells assessed as cell killing at 0.5 uM co-treated with IR-2 Gy incubated for 72 hrs by CCK-8 assay (reference value: 37%); assay type: functional

Tyrosyl-DNA phosphodiesterase 1 (Homo sapiens), sequence (Q9NUW8 whole entry): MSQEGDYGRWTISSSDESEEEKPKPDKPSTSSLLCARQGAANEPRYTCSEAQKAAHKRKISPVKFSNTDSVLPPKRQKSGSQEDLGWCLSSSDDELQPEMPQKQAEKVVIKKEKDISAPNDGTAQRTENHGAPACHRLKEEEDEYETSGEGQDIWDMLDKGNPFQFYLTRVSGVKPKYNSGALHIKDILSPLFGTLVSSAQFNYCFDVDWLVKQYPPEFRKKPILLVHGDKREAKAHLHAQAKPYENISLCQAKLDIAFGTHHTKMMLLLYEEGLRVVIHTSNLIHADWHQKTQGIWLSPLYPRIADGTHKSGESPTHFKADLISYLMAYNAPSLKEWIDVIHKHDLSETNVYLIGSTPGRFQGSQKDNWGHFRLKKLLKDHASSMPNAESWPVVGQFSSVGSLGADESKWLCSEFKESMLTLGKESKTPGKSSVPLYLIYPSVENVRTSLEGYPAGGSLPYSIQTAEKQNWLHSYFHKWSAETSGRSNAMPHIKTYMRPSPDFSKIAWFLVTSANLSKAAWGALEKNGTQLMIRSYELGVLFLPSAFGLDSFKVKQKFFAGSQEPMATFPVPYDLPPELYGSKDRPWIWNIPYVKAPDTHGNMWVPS

inhibition [1]: inactive
Structure (SMILES): COc1cc2c(=O)n(CCN3CCN(C)CC3)c3c4c(ccc3c2cc1OC)OCO4
GI50 (HCT-116 [2]): 9.95 µM

inhibition [1]: inactive
Structure (SMILES): COc1cc2c(=O)n(CCN3CCCC3)c3c4c(ccc3c2cc1OC)OCO4
Activity (HCT-116 [3]): ~100%
GI50 (HCT-116 [2]): 0.56 µM

inhibition [1]: inactive
Structure (SMILES): COc1cc2c(Nc3ccc(C(=O)N4CCN(C)CC4)cc3)nc3c4c(ccc3c2cc1OC)OCO4
GI50 (HCT-116 [2]): 3.32 µM

inhibition [1]: inactive
Structure (SMILES): COc1cc2c(Nc3ccc(C(=O)N(C)C)cc3)nc3c4c(ccc3c2cc1OC)OCO4
GI50 (HCT-116 [2]): 7.79 µM

inhibition [1]: inactive
Structure (SMILES): COc1cc2c(Nc3ccc(C(=O)N4CCC(OC)CC4)cc3)nc3c4c(ccc3c2cc1OC)OCO4
GI50 (HCT-116 [2]): 2.76 µM

inhibition [1]: inactive
Structure (SMILES): COc1cc2c(N3CCN(c4ncccn4)CC3)nc3c4c(ccc3c2cc1OC)OCO4
Activity (HCT-116 [4]): 23.41%
Activity (HCT-116 [5]): 7.21%
Activity (HCT-116 [6]): inactive
Activity (HCT-116 [7]): 36.95%
Activity (HCT-116 [8]): 37.67%
Activity (HCT-116 [9]): Active
Activity (HCT-116 [10]): ~99%
Activity (HCT-116 [11]): 22.09%
CI (HCT-116 [12]): 0.4
viability at 0.5 µM (HCT-116 [13]): 64%
Activity (HCT-116 [14]): Active
CI (HCT-116 [15]): 0.29
Activity (HCT-116 [16]): 2.1%
Activity (HCT-116 [17]): 43.16%
GI50 (HCT-116 [2]): 6.08 µM
viability at 5 µM (HCT-116 [18]): 89.4%
viability at 5 µM (HCT-116 [19]): 95.2%
Activity (HCT-116 [20]): 23.9%
Activity (HCT-116 [21]): Dose-dependent-effect
Activity (HCT-116 [22]): <20%
fold change (FC) (HCT-116 [23]): 1.8
inhibition at 0.25 µM (HCT-116 [24]): 30%
fold change (FC) (HCT-116 [25]): 1.4
Activity (HCT-116 [26]): Active
Activity (HCT-116 [27]): 1.75%
Activity (HCT-116 [28]): 3.11%

inhibition [1]: inactive
Structure (SMILES): COc1cc2c(=O)n(CCc3cccs3)c3c4c(ccc3c2cc1OC)OCO4
GI50 (HCT-116 [2]): 44.8 µM

inhibition [1]: inactive
Structure (SMILES): COc1ccc(Cn2c(=O)c3cc(OC)c(OC)cc3c3ccc4c(c32)OCO4)cc1
GI50 (HCT-116 [2]): > 100 µM

inhibition [1]: inactive
Structure (SMILES): COc1cc2c(=O)n(CC(=O)N3CCOCC3)c3c4c(ccc3c2cc1OC)OCO4
GI50 (HCT-116 [2]): 54.2 µM

inhibition [1]: inactive
Structure (SMILES): COc1cc2c(=O)n(CCN3CCCCC3)c3c4c(ccc3c2cc1OC)OCO4
Activity (HCT-116 [29]): inactive
GI50 (HCT-116 [2]): 0.81 µM
Activity (HCT-116 [30]): 55%

inhibition [1]: inactive
Structure (SMILES): COc1cc2c(NCCN3CCCC3)nc3c4c(ccc3c2cc1OC)OCO4
viability at 0.5 µM (HCT-116 [13]): ~80%
GI50 (HCT-116 [2]): 2.11 µM
Activity (HCT-116 [22]): Active

inhibition [1]: inactive
Structure (SMILES): COc1cc2c(=O)n(CCNC(=O)OC(C)(C)C)c3c4c(ccc3c2cc1OC)OCO4
GI50 (HCT-116 [2]): > 100 µM

inhibition [1]: inactive
Structure (SMILES): COc1cc2c(=O)n(CCn3cccn3)c3c4c(ccc3c2cc1OC)OCO4
GI50 (HCT-116 [2]): > 100 µM

inhibition [1]: inactive
Structure (SMILES): COc1cc2c(OCCN3CCCC3)nc3c4c(ccc3c2cc1OC)OCO4
Activity (HCT-116 [3]): ~100%
GI50 (HCT-116 [2]): 0.31 µM

inhibition [1]: inactive
Structure (SMILES): COc1cc2c(=O)n(Cc3ccc(OC(F)(F)F)cc3)c3c4c(ccc3c2cc1OC)OCO4
GI50 (HCT-116 [2]): 4.79 µM

inhibition [1]: inactive
Structure (SMILES): COc1cc2c(=O)n(CCN(C)C)c3c4c(ccc3c2cc1OC)OCO4
Activity (HCT-116 [3]): ~100%
GI50 (HCT-116 [2]): 0.55 µM

inhibition [1]: inactive
Structure (SMILES): COc1cc2c(NCCN3CCN(C)CC3)nc3c4c(ccc3c2cc1OC)OCO4
GI50 (HCT-116 [2]): 0.85 µM

inhibition [1]: inactive
Structure (SMILES): COc1cc2c(=O)n(Cc3ccc(C(=O)O)cc3)c3c4c(ccc3c2cc1OC)OCO4
GI50 (HCT-116 [2]): > 100 µM

inhibition [1]: inactive
Structure (SMILES): COc1cc2c(OCCN(C)C)nc3c4c(ccc3c2cc1OC)OCO4
Activity (HCT-116 [3]): ~100%
GI50 (HCT-116 [2]): 0.32 µM

inhibition [1]: inactive
Structure (SMILES): COc1cc2c(NCCN(C)C)nc3c4c(ccc3c2cc1OC)OCO4
Activity (HCT-116 [3]): ~100%
GI50 (HCT-116 [2]): 0.47 µM

inhibition [1]: inactive
Structure (SMILES): COc1cc2c(OCCN3CCN(C)CC3)nc3c4c(ccc3c2cc1OC)OCO4
GI50 (HCT-116 [2]): 7.88 µM

inhibition [1]: inactive
Structure (SMILES): COc1cc2c(=O)n(CCN3CCOCC3)c3c4c(ccc3c2cc1OC)OCO4
GI50 (HCT-116 [2]): 3.22 µM

inhibition [1]: inactive
Structure (SMILES): COc1cc2c(=O)n(CCn3cccc3)c3c4c(ccc3c2cc1OC)OCO4
GI50 (HCT-116 [2]): 17.3 µM

inhibition [1]: inactive
Structure (SMILES): COc1cc2c(Nc3ccc(C(=O)N4CCOCC4)cc3)nc3c4c(ccc3c2cc1OC)OCO4
GI50 (HCT-116 [2]): 5.26 µM

inhibition [1]: inactive
Structure (SMILES): COc1cc2c(Nc3ccc(C(=O)N4CCCC4)cc3)nc3c4c(ccc3c2cc1OC)OCO4
GI50 (HCT-116 [2]): 1.46 µM
